In data set [1] the test system is SH-SY5Y neuroblastoma cells. The data set is described as follows: XTT mitochondrial activity/cell viability assay, SH-SY5Y. As to conditions: 20 µM, 24 h, serum-free media, vs DMSO control (0.2%), mean. The format is cell-based. The protocol:
The safety profile of niridazole and its organometallic derivatives was evaluated using two different cell lines. The XTT mitochondrial activity assay reflecting cell viability was performed in the hepatocyte‐derived carcinoma cell line HUH7 and in the human neuroblastoma cell line SH‐SY5Y at 20 µM for 24 h. The SYTOX cell viability assay was subsequently performed on the SH‐SY5Y cell line, once the cell line was identified to be more sensitive to the treatment conditions.
Figure 5 XTT assay. Results of the XTT activity/viability assay are shown in A for HUH7 and B for SHSY5Y cells. […]
Additionally, 2 wells with negative controls containing only DMSO and the culture medium were included. After an incubation period of 72 h at 37 °C and 5 % CO 2, the worms were microscopically evaluated. The drug effect was determined 24, 48 and 72 h post-exposure based on the phenotype of the adult worms, using a viability scale ranging from three referring to viable, motile worms with no change in their tegument to zero standing for the death of the worms. […]
Following 24 h of incubation, 12.5 μL of an XTT/phenazine methosulfate (PMS) (XTT Sigma Aldrich cat X4626, PMS Serva CAT: 3203) 0.02solution (1 mg/mL XTT and 7.5 μg/mL PMS) was added to each well. […] Mean ± SD was determined from three independent experiments, each performed in quintuplicate. […]
On the technique in general: Tetrazolium assays rely on reduction of a dye to a coloured formazan, in cell work by metabolically active cells.

Data set [2] concerns juvenile S. mansoni. The data set is described as follows: In vitro drug sensitivity assay on juvenile S. mansoni. In kind it is cell-based, Schistosoma mansoni. Particulars: Schistosoma mansoni; 72 h incubation, 37 °C, 5% CO2. The protocol:
Juvenile worms were gained through cultivation of NTS as previously described. 10 In short, NTS were obtained as described above, then directly after the mechanical transformation process the newly transformed schistosomula were placed in a special culturing medium. The culture medium consists of Panserin 401, w: L-Glutamine, serum free all-round medium (Pan Biotech, Aidenbach, Germany) supplemented with 20 % human serum and 500 U/mL penicillin, […] streptomycin (LuBioScience, Switzerland). 96-well transparent polystyrene flat bottom plates were used for the in vitro growth procedure, with 40 to 60 NTS per well in 100 µL culture medium. The bordering wells of the plate were filled solely with medium to counteract evaporation and to keep the humidity as steady as possible. The plates were incubated for 21 days at 5 % CO2 and at 37 °C, with regular medium changes every 3 to 4 days. After the 21 days culturing period, the schistosomulae developed into juveniles. For the drug sensitivity assay, juvenile worms were incubated over 72 h (5 % CO 2 and 37 °C) with the test compound in the same medium, as used for the culturing process. In a 96-well plate, 250 µL medium containing the test compound and six juvenile worms, ideally of both sexes were placed in each well. All compounds were tested twice independently at 50, 10, 5 and 1 µM in duplicates. The viability of the worms was evaluated microscopically after 24, 48 and 72 h of continuous drug exposure using the same phenotypic screening method as described before. […]

For `O=C1NCCN1c1ncc([N+](=O)[O-])s1` [Niridazole, niridazole], the “reduction of XTT signal in SH-SY5Y cells” value in data set [1] is “no signs of toxicity”. Moreover, in data set [2], the EC50 – broadly, the concentration at which the effect is half-maximal – was 1800 nM.

These data come from publication PMC12677843, “Multidisciplinary Preclinical Investigations on Ferrocenyl, Ruthenocenyl, and Benzyl Derivatives of Niridazole as New Drug Candidates against Schistosomiasis” (Chemmedchem, 2025).
